Values joined by “and” are separate entries in the source; they are usually repeats but may differ in a detail not shown here. Equal entries are not always repeated.
Target: T1, human PDE4B1 (Homo sapiens, UniProt Q07343)
T1 construct: host or cells: Sf9 cells
Assay: cAMP HTRF assay to determine the activity of hPDE4B1
Assay type: biochemical
Conditions: for inhibition at 1 µM: Percentage inhibition of PDE4B at 1 μM test concentration; for IC50: dose response measurements with eight concentrations, reported as ranges, read-out: IC50
How it was run: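 Sf9-expressed recombinant human PDE4B1 (4.8 U) in Tris-HCl/MgCl2/DTT/Tween 20 buffer pH 7.8, with cAMP at 40 nM final, 30 min at room temperature. Reaction stopped with IBMX 1 mM; remaining cAMP detected by HTRF (665/620 nm ratio). IC50 from eight-point dose-response, n=2.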

T1 sequence (Q07343 whole entry): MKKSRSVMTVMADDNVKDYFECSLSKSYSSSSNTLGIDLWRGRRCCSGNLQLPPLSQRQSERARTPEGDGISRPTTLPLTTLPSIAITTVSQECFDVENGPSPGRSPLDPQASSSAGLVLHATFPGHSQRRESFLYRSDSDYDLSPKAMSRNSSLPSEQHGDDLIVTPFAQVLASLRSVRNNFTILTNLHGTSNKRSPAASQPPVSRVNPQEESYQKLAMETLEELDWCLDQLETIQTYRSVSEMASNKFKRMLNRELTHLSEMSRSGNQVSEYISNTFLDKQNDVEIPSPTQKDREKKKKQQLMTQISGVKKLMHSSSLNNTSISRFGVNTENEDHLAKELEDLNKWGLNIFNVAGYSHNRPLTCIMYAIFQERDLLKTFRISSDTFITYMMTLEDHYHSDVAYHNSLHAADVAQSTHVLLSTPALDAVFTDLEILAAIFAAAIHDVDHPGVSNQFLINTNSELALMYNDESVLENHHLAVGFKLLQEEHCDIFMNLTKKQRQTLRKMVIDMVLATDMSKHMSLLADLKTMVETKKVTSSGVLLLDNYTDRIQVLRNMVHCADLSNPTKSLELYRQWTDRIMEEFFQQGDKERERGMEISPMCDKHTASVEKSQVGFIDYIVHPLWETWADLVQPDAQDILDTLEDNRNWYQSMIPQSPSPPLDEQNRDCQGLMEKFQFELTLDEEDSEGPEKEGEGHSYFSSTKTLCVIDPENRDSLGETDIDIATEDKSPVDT

| inhibition at 1 µM | IC50 | Structure (SMILES) |
| --- | --- | --- |
| 90% | < 100 nM | O=C(COc1ccc2c(c1)N(c1nc(-c3ccncc3)nc3c1CS(=O)(=O)C3)CC2)N1CCC1 [Compound No. 2-131, 1-(Azetidin-1-yl)-2-((1-(6,6-dioxido-2-(pyridin-4-yl)-5,7-dihydrothieno[3,4-d]pyrimidin-4-yl)indolin-6-yl)oxy)ethanone] |
| 91% | < 100 nM | CN(C)C(=O)COc1ccc2c(c1)N(c1nc(-c3ccncc3)nc3c1CS(=O)(=O)C3)CC2 [Compound No. 2-132, 2-((1-(6,6-Dioxido-2-(pyridin-4-yl)-5,7-dihydrothieno[3,4-d]pyrimidin-4-yl)indolin-6-yl)oxy)-N,N-dimethylacetamide] |
| 94% | < 100 nM | O=C(COc1ccc2c(c1)N(c1nc(-c3ccncc3)nc3c1C[S+]([O-])C3)CC2)N1CCCC1 (stereo not drawn) [Compound No. 2-133, 2-((1-(6-Oxido-2-(pyridin-4-yl)-5,7-dihydrothieno[3,4-d]pyrimidin-4-yl)indolin-6-yl)oxy)-1-(pyrrolidin-1-yl)ethanone] |
| 77% | < 100 nM | O=C(COc1ccc2c(c1)N(c1nc(-c3ccncc3)nc3c1C[S+]([O-])C3)CC2)N1CCC1 (stereo not drawn) [Compound No. 2-134, 1-(Azetidin-1-yl)-2-((1-(6-oxido-2-(pyridin-4-yl)-5,7-dihydrothieno[3,4-d]pyrimidin-4-yl)indolin-6-yl)oxy)ethanone] |
| 97% | < 100 nM | CN(C)C(=O)COc1ccc2c(c1)N(c1nc(-c3ccncc3)nc3c1C[S+]([O-])C3)CC2 (stereo not drawn) [Compound No. 2-135, N,N-Dimethyl-2-((1-(6-oxido-2-(pyridin-4-yl)-5,7-dihydrothieno[3,4-d]pyrimidin-4-yl)indolin-6-yl)oxy)acetamide] |
| 98% | < 100 nM | CN(C)C(=O)COc1ccc2c(c1)N(c1nc(-c3cccnc3)nc3c1CS(=O)(=O)C3)CC2 [Compound No. 2-136, 2-((1-(6,6-Dioxido-2-(pyridin-3-yl)-5,7-dihydrothieno[3,4-d]pyrimidin-4-yl)indolin-6-yl)oxy)-N,N-dimethylacetamide] |
| 97% | < 100 nM | CN(C)C(=O)COc1ccc2c(c1)N(c1nc(-c3cccnc3)nc3c1C[S+]([O-])C3)CC2 (stereo not drawn) [Compound No. 2-137, N,N-Dimethyl-2-((1-(6-oxido-2-(pyridin-3-yl)-5,7-dihydrothieno[3,4-d]pyrimidin-4-yl)indolin-6-yl)oxy)acetamide] |
|  | < 100 nM | COc1ccc(-c2nc3c(c(N4CCc5ccc(OCC(=O)N(C)C)cc54)n2)C[S+]([O-])C3)cn1 (stereo not drawn) [Compound No. 2-139, 2-((1-(2-(6-Methoxypyridin-3-yl)-6-oxido-5,7-dihydrothieno[3,4-d]pyrimidin-4-yl)indolin-6-yl)oxy)-N,N-dimethylacetamide] |
| 95% | < 100 nM | Cc1ncc(-c2nc3c(c(N4CCc5ccc(OCC(=O)N(C)C)cc54)n2)C[S+]([O-])C3)s1 (stereo not drawn) [Compound No. 2-140, N,N-Dimethyl-2-((1-(2-(2-methylthiazol-5-yl)-6-oxido-5,7-dihydrothieno[3,4-d]pyrimidin-4-yl)indolin-6-yl)oxy)acetamide] |
| 98% | < 100 nM | COc1ccc(-c2nc3c(c(N4CCc5ccc(OCC(=O)N(C)C)cc54)n2)C[S+]([O-])C3)nc1 (stereo not drawn) [Compound No. 2-141, 2-((1-(2-(5-Methoxypyridin-2-yl)-6-oxido-5,7-dihydrothieno[3,4-d]pyrimidin-4-yl)indolin-6-yl)oxy)-N,N-dimethylacetamide] |
| 87% | 100 to 1000 nM and < 100 nM | COc1ccc(-c2nc3c(c(N4CCc5ccc(OCC(=O)N(C)C)cc54)n2)CS(=O)(=O)C3)nc1 [Compound No. 2-143, 2-((1-(2-(5-Methoxypyridin-2-yl)-6,6-dioxido-5,7-dihydrothieno[3,4-d]pyrimidin-4-yl)indolin-6-yl)oxy)-N,N-dimethylacetamide] |

— patent US9527832B2, “Substituted condensed pyrimidine compounds” (GRÜNENTHAL GMBH, priority 2013, dated 2016)
